Source: patent US9067970B2, “Anticancer agents comprising peptides with cancer-specific toxicity” (Korea Advanced Institute of Science and Technology, priority 2010, dated 2015)
Where no end group is shown, it is not given here.

Key:
[1] = tested on: human embryo fibroblast (FSF); experiment: MTT viability of normal human embryo fibroblast (FSF) cells; conditions: peptide 10-200 μg/ml, 4 days, FIG. 1
Experimental: (§2) In order to test toxicity of the synthesized NKC and NRC peptides on normal cells, each of the cultured human embryo fibroblast (FSF), human keratinocyte (HaCat) and human erythrocyte was treated with the synthesized peptide, and the viability of each cell was analyzed.
(§3) In detail, each 1×10^4 of FSF and HaCat cells was aliquoted to a 96-well plate, and cultured for 24 hrs. Subsequently, each of the synthesized peptides, a known anticancer peptide, buforin IIb, and a known non-cytotoxic peptide, magainin 2 was added thereto at a concentration of 10, 25, 50, 100 or 200 μg/ml, and then the cells were cultured for 4 days. Thereafter, MTT (3-[4,5-dimethylthiazol-2-yl]-2,5-diphenyltetrazolium bromide) was added, and color development was detected using a spectrophotometer to count the number of surviving cells. On the basis of this, viability of each cell was calculated (FIGS. 1 and 1b). In this connection, an experimental group treated with PBS only was used as a control group.

[2] = tested on: human erythrocyte; experiment: Disruption of human erythrocytes (absorbance); conditions: peptide 10-200 μg/ml, 30 min, FIG. 3
Experimental: as §2
Meanwhile, PBS was added to erythrocytes obtained from the human blood, and diluted 1,000-fold. Each of the synthesized peptides, a known anticancer peptide, buforin IIb, and a known non-cytotoxic peptide, magainin 2 was added thereto at a concentration of 10, 25, 50, 100 or 200 μg/ml. After 30 min, disruption of erythrocytes was determined by the difference in absorbance using spectrometry (FIG. 3). In this connection, an experimental group treated with PBS only was used as a control group.

[3] = tested on: human keratinocyte (HaCat); experiment: MTT viability of normal human keratinocyte (HaCat) cells; conditions: peptide 10-200 μg/ml, 4 days, FIG. 2
Experimental: as §2, §3

[4] = tested on: normal HaCat cells; experiment: Fluorescence microscopy of FITC-labeled peptide, HaCat cells; type: cell-based, human; conditions: 20 μg/ml, 1 hr, fluorescence microscope, FIG. 10
Experimental: (§1) To reconfirm the cell selectivity of the peptides of the present invention, each 2×10^5 of normal FSF and HaCat cells, and SM-MEL-5 cell line, HeLa cell line and HCT-116 cell line as cancer cells were cultured at 37° C. overnight, and FITC (fluorescein isothiocyanate)-labeled peptides, buforin IIB and magainin 2 were added thereto at a concentration of 20 μg/ml, followed by incubation for 1 hr. Each cell or cell line was washed with PBS, and observed under a fluorescence microscope (FIG. 10).

[5] = tested on: K-562 cancer cell line; experiment: Anticancer activity on cancer cells lacking ganglioside (PMPP, MTT viability); type: cell-based, human; conditions: peptide 10 μg/ml, PMPP 0, 2 and 4 μM, 48 hrs, FIG. 16
Experimental: In detail, the K-562 cancer cell line was aliquoted to each well of 96-well plate at a density of 1×10^4, and each well was treated with an inhibitor of ganglioside biosynthesis, PMPP at the concentration of 0, 2 and 4 μM, and then treated with 10 μg/ml of the peptides of the present invention, buforin IIb and magainin 2, followed by cultivation for 48 hrs. Cell viability was measured in the same manner as in Example 1 (MTT assay) (FIG. 16).

[6] = tested on: SM-MEL-5 cell line; experiment: Fluorescence microscopy of FITC-labeled peptide, SM-MEL-5 cell line; type: cell-based, human; conditions: 20 μg/ml, 1 hr, fluorescence microscope, FIG. 10
Experimental: as §1

[7] = tested on: HeLa cell line; experiment: Fluorescence microscopy of FITC-labeled peptide, HeLa cell line; type: cell-based, human; conditions: 20 μg/ml, 1 hr, fluorescence microscope, FIG. 10
Experimental: as §1

[8] = tested on: normal FSF cells; experiment: Fluorescence microscopy of FITC-labeled peptide, FSF cells; type: cell-based, human; conditions: 20 μg/ml, 1 hr, fluorescence microscope, FIG. 10
Experimental: as §1

[9] = tested on: HCT-116 cell line; experiment: Fluorescence microscopy of FITC-labeled peptide, HCT-116 cell line; type: cell-based, human; conditions: 20 μg/ml, 1 hr, fluorescence microscope, FIG. 10
Experimental: as §1

[10] = tested on: K-562 cancer cell line; experiment: Competitive binding assay with ganglioside, phosphatidylserine or heparin (MTT viability); type: cell-based, human; conditions: peptide 10 μg/ml, 48 hrs
Description: Accordingly, the present inventors assumed that external addition of ganglioside, phosphatidylserine, and heparin to the cancer cell culture media causes dispersion of the peptides of the present invention in the cancer cell surface and the negatively charged materials added to the culture media, whereby the anticancer activity is reduced by the addition of negatively charged materials in a concentration-dependent manner.
In detail, the K-562 cancer cell line was aliquoted to each well of 96-well plate at a density of 1×10^4, and each well was treated with 1 to 100 μg/ml of heparin, phosphatidylserine or ganglioside, and 10 μg/ml of the peptides of the present invention, buforin IIb and magainin 2, followed by cultivation for 48 hrs. Cell viability was measured in the same manner as in Example 1 (MTT assay) (FIGS. 13 to 15).

Substance | viability of FSF cells (toxicity on normal cells) [1] | viability of erythrocytes (toxicity on normal cells) [2] | viability of HaCat cells (toxicity on normal cells) [3] | detection of FITC-labeled peptide in normal HaCat cells [4] | viability of cancer cells with increasing concentration of inhibitor of ganglioside biosynthesis [5] | detection of FITC-labeled peptide in SM-MEL-5 cell line [6] | detection of FITC-labeled peptide in HeLa cell line [7] | detection of FITC-labeled peptide in normal FSF cells [8] | detection of FITC-labeled peptide in HCT-116 cell line [9] | cell viability with external addition of ganglioside ([10]; ganglioside 1 to 100 μg/ml, FIG. 13) | cell viability with external addition of heparin ([10]; heparin 1 to 100 μg/ml, FIG. 15) | cell viability with external addition of phosphatidylserine ([10]; phosphatidylserine 1 to 100 μg/ml, FIG. 14)
APKAMKLLKKLLKLQKKGI-NH2 [NKC, APKAMKLLKKLLKLQKKGI-amine] | little toxicity | little toxicity | little toxicity |  |  |  |  |  |  |  |  | 
APKAMRLLRRLLRLQKKGI-NH2 [NRC, APKAMRLLRRLLRLQKKGI-amide] | little toxicity | little toxicity | little toxicity |  |  |  |  |  |  |  |  | 
buforin IIb |  |  |  | at a predetermined level | increased | in a large quantity | in a large quantity | rarely detected | in a large quantity | high cell viability | high cell viability | high cell viability
magainin 2 |  |  |  | not detected |  | not detected | not detected | not detected | not detected |  |  | 
